Legend:
[1] = tested on: Vibrio fischeri; assay: Microtox test with bacteria immobilized on silica gel (bacteria/silica mixture); assay type: cell-based; conditions: FIGS. 3, 4 & 5; silica gel
Protocol: For initial testing of such a bacteria/silica mixture, rehydration of freeze-dried luminescent Vibrio fischeri Microtox® reagent is carried out as before, and 4 aliquots are taken. One aliquot of the resultant suspension is mixed with 0.5 g of silica gel, although the amount of silica gel can be varied. After the bacteria are adsorbed onto the silica gel, the resultant mixture is used as the bioluminescent reagent in toxicity assays. Two of the other aliquots are used as controls (with and without silica gel), and the third is tested with toxicant alone.

[2] = tested on: Vibrio fischeri; assay: Modified Microtox test, toxicant adsorbed onto silica gel then added to bacterial suspension; conditions: FIGS. 1 and 2, 30 minutes incubation
Protocol: Briefly the Microtox® tests used for this study first involve rehydration of freeze-dried luminescent Vibrio fischeri bacteria, i.e. the Microtox® reagent.
The reconstituted bacterial suspension is added to a series dilution of sample in 2% NaCl and incubated for 15° C. for 0.5–15 minutes. The dilutions can be modified to give any desired concentration of sample, and the volume of reagent used per test can also be varied.
After incubation, bioluminescence is measured in a suitable photometer, such as a Deltatox® photometer or that in the Microtox® Model 500 Analyzer.
Data is recorded in terms of decrease luminescence over time.
Generally, these tests are carried out in the presence of an adsorbent which is referred to as using a modified Microtox® test.
In one embodiment of the invention, the solid-phase adsorbent is added to samples of toxicants and left for 30 minutes at ambient temperature. The amount of solid adsorbent and the concentrations of toxicant used are varied.
During this time, rehydration of the freeze-dried Microtox® bacteria as an aqueous suspension is performed, and it is left to stabilize at 15° C. for 15 minutes. […]
At the same time, a control sample of bacteria is monitored for comparison. […]
After 30 minutes of incubation, the bioluminescence is measured using a photometer, and data is recorded in terms of decrease of luminescence over time.

[3] = tested on: Vibrio fischeri; assay: Toxicity assay with freeze-dried (stabilized) silica-based bacterial reagent vs standard Microtox reagent; assay type: cell-based; conditions: 10 ppm malathion; FIG. 5
Protocol: Stabilization of the bacteria used in the standard Microtox® test is performed by freeze-drying, and the effects of stabilization on such a bacteria-silica mixture were also investigated. A bacteria-silica mixture at a specific bacteria to silica ratio is subjected to freeze-drying at −30° C. for 6 hours under a vacuum, i.e. 0.1 hPa. Thereafter, the temperature is ramped up to +15° C. at increments of 10° C. per 15 minutes, retaining the vacuum, and then held at +15° C. for 8 hours.
Tests are then run to compare this freeze-dried mixture with the standard Microtox® freeze-dried reagent.

SMILES	toxic effect of aqueous toxicant on bioluminescence with bacteria immobilized by adsorption onto a solid surface, compared to free bacteria [1]	toxicity effect (effect on luminescence) when toxicant is adsorbed onto a solid surface, compared to aqueous toxicant [2]	% toxic effect with stabilized silica-based reagent compared to standard Microtox reagent [3]
CCOC(=O)CC(SP(=S)(OC)OC)C(=O)OCC (centres unmarked) [malathion]	enhanced	increased	increased
Oc1ccccc1 [phenol]	enhanced	increased	–

Reference: patent US7214505B1, “Cell-based assay for the detection of toxic analytes” (priority 1999, dated 2007)
